# Laboratory results taken from patent US20110319347A1, “ANTIOXIDANT AGENT” (priority 2009, published 2011).
# Target: Mushroom tyrosinase (Agaricus bisporus, UniProt C7FF04)
# Test: Tyrosinase inhibitory activity with L-DOPA as substrate
# Format: biochemical
# Settings: not given
# Experimental: Tyrosinase inhibitory activity of a peptide can be evaluated by a known method using tyrosinase and its substrate such as L-dihydroxyphenylalanine (L-DOPA) or L-tyrosine. Specific examples of the evaluation method are described in the Examples below. For example, a peptide whose tyrosinase inhibitory activity should be measured, tyrosinase, and its substrate are dissolved in phosphate buffer, respectively (the peptide and tyrosinase may be dissolved in the same solution). Immediately after mixing the three components, change in absorbance at 475 nm is measured with a spectrophotometer. Since melanin has an absorption maximum at 475 nm, absorbance at 475 nm increases if melanin is synthesized from L-DOPA by tyrosinase. […] Therefore, the tyrosinase inhibitory activity of a peptide can be evaluated based on the change in absorbance.
# Mushroom tyrosinase (SIGMA-Aldrich, Missouri, USA)
# L-DOPA (SIGMA-Aldrich, Missouri, USA)
# 50 mM Sodium phosphate buffer (pH 6.8)
# Using 50 mM sodium phosphate buffer (pH 6.8), 5 mM L-DOPA solution, mushroom tyrosinase solution (2 units/μL) and 1 mM inhibitor stock solution (×10) were prepared.
# Reaction Solution A (25 μL of 5 mM DOPA solution; 75 μL of 50 mM sodium phosphate buffer (pH 6.8)) and Reaction Solution B (25 μL of inhibitor stock solution; 12.5 μL of tyrosinase solution; 112.5 μL of 50 mM sodium phosphate buffer (pH 6.8)) were prepared in two Eppendorf tubes, respectively. Reaction Solutions A and B were mixed just before the measurement, and the absorbance at 475 nm wavelength was measured with a spectrophotometer (V-570, Jasco, Tokyo, Japan). The measurement was carried out for 60 seconds at room temperature, and the absorbance was recorded every 1 second. This operation was repeated 3 times for each sample concentration.
# The tyrosinase activity ratio at each inhibitor concentration was calculated based on the control (tyrosinase alone) value, and IC50s for tyrosinase inhibition of the samples were calculated using Ngraph. The fitting formula below was used in the calculation.
# y=a−(a−b)/(1+(x/c)̂d (a=Minimum value of y; b=Maximum value of y; c=[…]; d=Variable)
# Chain of Mushroom tyrosinase (G1K3P4 entry or part of it): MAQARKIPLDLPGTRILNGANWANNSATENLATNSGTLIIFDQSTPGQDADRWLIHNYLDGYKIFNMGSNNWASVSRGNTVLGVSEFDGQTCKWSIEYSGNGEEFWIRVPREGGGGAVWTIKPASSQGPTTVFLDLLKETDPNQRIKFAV
# Chain of Mushroom tyrosinase (C7FF04 1-392): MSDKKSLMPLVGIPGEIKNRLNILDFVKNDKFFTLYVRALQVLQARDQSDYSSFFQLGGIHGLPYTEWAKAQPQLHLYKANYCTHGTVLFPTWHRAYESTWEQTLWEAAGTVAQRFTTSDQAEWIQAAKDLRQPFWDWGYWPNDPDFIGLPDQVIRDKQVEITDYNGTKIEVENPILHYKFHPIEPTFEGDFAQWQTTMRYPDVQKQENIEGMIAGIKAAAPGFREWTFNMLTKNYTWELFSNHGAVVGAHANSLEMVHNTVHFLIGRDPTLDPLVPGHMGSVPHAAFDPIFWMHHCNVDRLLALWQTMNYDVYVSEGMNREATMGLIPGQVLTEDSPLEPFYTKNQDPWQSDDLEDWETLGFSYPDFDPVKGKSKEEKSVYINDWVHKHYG
row,Compound,Tyrosinase inhibitory activity compared in words with mimosine or kojic acid
1,Mim-His-Trp [Sample 5],higher than kojic acid

# Same assay, conditions: pH 6.8, room temperature, absorbance at 475 nm for 60 seconds, read-out: IC50 for tyrosinase inhibition
row,Compound,IC50 [µM]
1,Mim-His-Trp [Sample 5],3.02
2,Mim-Pro-His-His [Sample 1],16.4
3,Mim-Trp-Trp [Sample 6],28.2
4,Mim-His-Tyr [Sample 3],8.84

# System: not listed separately
# Test: β-carotene bleaching method (carotene-linoleic acid autoxidation)
# Format: biochemical
# Settings: 5 μM
# From the text: (§1) The antioxidant action of a peptide may be determined by a known method such as DPPH method or β-carotene bleaching method (see, e.g., Chen, H M., Muramoto, K., Yamauchi, F., and Nokihara, K., J. Agric. Food Chem., 44, 2619-2623, 1996. Antioxidant Activity of Designed Peptides Based on the Antioxidative Peptide Isolated from Digests of a Soybean Protein). DPPH method is to measure radical scavenging ability using 1,1-diphenyl-2-picrylhydrazyl (DPPH). […] In addition, the level of an antioxidant action can be evaluated by the degree of decrease of absorbance. β-carotene bleaching method is to calculate antioxidant ability of an analyte by autoxidizing a mixture of β-carotene, linoleic acid and the analyte and measuring suppression of β-carotene oxidization. […] In addition, the level of an antioxidant action can be evaluated by the degree of decrease of absorbance. Such known evaluation methods as described above reflect a part of antioxidant mechanisms which act in a living body in parallel.
# β-carotene was dissolved in chloroform to prepare 1 mg/mL solution. Linoleic acid was dissolved in chloroform to prepare 0.1 g/mL solution. Tween 40 was dissolved in chloroform to prepare 0.2 g/mL solution. Into 100 mL recovery flasks, 0.15 mL of β-carotene solution in chloroform, 0.1 mL of linoleic acid solution in chloroform, and 0.3 mL of Tween 40 solution in chloroform were aliquoted, and the mixed solution was evaporated to dryness with an evaporator until the smell of chloroform was completely disappeared. The dried mixture was dissolved in 30 mL of pure water, and 2.7 mL of 0.2 M phosphate buffer (pH 6.8) was further added thereto, followed by gentle stirring to prepare carotene-linoleic acid solution. Next, the peptides obtained in Example 1 were dissolved in ethanol to prepare 1 mL of 0.05 mM peptide solutions, respectively.
# Thereafter, 0.45 mL of carotene-linoleic acid solution and 0.05 mL of undiluted sample solution were mixed and stirred (sample concentration: 5 μM), and the reaction was allowed to proceed for 50 minutes at 50° C. Five minutes and 50 minutes after the start of the reaction, the absorbance at OD 492 nm was measured with a UV-VIS spectrophotometer. For blanks, a blank solution was prepared using the same volume of distilled water instead of carotene-linoleic acid solution, and the absorbance of the blank solution was measured via the same reaction condition. For controls, a control solution was prepared using ethanol instead of sample solutions, and the absorbance of the control solution was measured via the same reaction condition.
# The antioxidant ability was calculated according to the following formula.
# Antioxidant ability(%)=[1-−A5S−A50S)/(A5C−A50C)]×100
# A5C=The absorbance of the control after 5-minute reaction. A5S=The absorbance of the sample after 5-minute reaction. A50C=The absorbance of the control after 50-minute reaction. A50S=The absorbance of the sample after 50-minute reaction.
# (§2) The BHT-relative antioxidant ability was calculated according to the following formula.
# BHT-Relative Antioxidant Ability(%)=[AntOx(%)]/[5 μM BHT(%)]×100
row,Compound,Antioxidant ability (β-carotene method) compared in words with BHT or Pro-His-His
1,Mim-His-Trp [Sample 5],at the same level as BHT
2,Mim-Pro-His-His [Sample 1],at the same level as BHT
3,Mim-His-Tyr [Sample 3],at the same level as BHT

# Same assay, conditions: sample concentration 5 μM; 50 minutes at 50° C.; absorbance at 492 nm; relative to 5 μM BHT
row,Compound,BHT-Relative Antioxidant Ability (%) β-Carotene Method [%]
1,Leu-Trp-Mim [Sample 9],77.32
2,"Pro-His-Tyr [Sample 3X, reference compound]",33.56
3,Mim-His-Trp [Sample 5],92.66
4,"Pro-His-His [Sample 1X, reference compound]",63.00
5,Mim-Pro-His-His [Sample 1],93.86
6,Mim-Arg-Tyr [Sample 2],66.77
7,Pro-His-Mim [Sample 10],79.55
8,"Leu-His-Trp [Sample 8X, reference compound]",46.79
9,Mim-Trp-Trp [Sample 6],72.56
10,Pro-Mim-His [Sample 7],73.07
11,MimLys-Tyr [Sample 4],81.96
12,Leu-His-Mim [Sample 8],77.79
13,"Tyr-Lys-Tyr [Sample 4X, reference compound]",18.88
14,"Leu-Trp-Trp [Sample 6X, reference compound]",28.28
15,"Cc1cc(C(C)(C)C)c(O)c(C(C)(C)C)c1 [BHT, butylated hydroxytoluene, reference compound]",100.00
16,Mim-His-Tyr [Sample 3],95.80
17,"Arg-His-Trp [Sample 5X, reference compound]",41.37
18,"Tyr-Arg-Tyr [Sample 2X, reference compound]",7.78

# System: not listed separately
# Test: DPPH radical scavenging ability
# Format: biochemical
# Settings: 500 μM
# From the text: as §1
# Next, DPPH was dissolved in ethanol to prepare 10 mL of 0.1 mM DPPH-ethanol solution, and 0.15 mL of this DPPH-ethanol solution and 0.15 mL of the above-prepared undiluted solution were mixed and stirred (the sample concentration: 500 μM). The reaction was allowed to proceed for 50 minutes at room temperature, and the absorbance at 517 nm wavelength was measured with a UV-VIS spectrophotometer (JASCO V-570). For blanks, a blank solution was prepared using the same volume of ethanol instead of DPPH, and the absorbance of the blank solution was measured via the same reaction condition. For controls, a control solution was prepared using ethanol instead of sample solutions, and the absorbance of the control solution was measured via the same reaction condition.
# The DPPH radical scavenging ability was calculated according to the following formula.
# Radical Scavenging Ability AntOx(%)=(Acon−Asam)/Acon×100
# Acon=The absorbance of the control after being left to stand for 50 minutes. Asam=The absorbance of the sample after being left to stand for 50 minutes.
# as §2
# BHT-Relative Antioxidant Ability(%)=[AntOx(%)]/[500 μM BHT(%)]×100
row,Compound,Radical scavenging ability (DPPH) compared in words with BHT or Pro-His-His
1,Mim-His-Trp [Sample 5],at the same level as or higher than BHT
2,Mim-Pro-His-His [Sample 1],at the same level as or higher than BHT
3,Mim-Trp-Trp [Sample 6],at the same level as or higher than BHT

# Same assay, conditions: sample concentration 500 μM; 50 minutes at room temperature; absorbance at 517 nm; relative to 500 μM BHT
row,Compound,BHT-Relative Antioxidant Ability (%) DPPH Method [%]
1,Leu-Trp-Mim [Sample 9],41.02
2,"Pro-His-Tyr [Sample 3X, reference compound]",9.63
3,Mim-His-Trp [Sample 5],99.06
4,"Pro-His-His [Sample 1X, reference compound]",23.01
5,Mim-Pro-His-His [Sample 1],111.67
6,Mim-Arg-Tyr [Sample 2],77.89
7,Pro-His-Mim [Sample 10],26.45
8,"Leu-His-Trp [Sample 8X, reference compound]",41.92
9,Mim-Trp-Trp [Sample 6],117.34
10,Pro-Mim-His [Sample 7],37.04
11,MimLys-Tyr [Sample 4],75.33
12,Leu-His-Mim [Sample 8],26.45
13,"Tyr-Lys-Tyr [Sample 4X, reference compound]",9.55
14,"Leu-Trp-Trp [Sample 6X, reference compound]",73.27
15,"Cc1cc(C(C)(C)C)c(O)c(C(C)(C)C)c1 [BHT, butylated hydroxytoluene, reference compound]",100.00
16,Mim-His-Tyr [Sample 3],84.88
17,"Arg-His-Trp [Sample 5X, reference compound]",11.26
18,"Tyr-Arg-Tyr [Sample 2X, reference compound]",11.31

# System: ddY mice
# Test: Acute dermal toxicity study of mimosine cream
# Format: in vivo
# Settings: cream applied to shaved trunk twice a day for three days; skins surveyed at day 5
# Experimental: Vegetable emulsified wax (emulsifying wax, Orangeflower Inc., ingredients: stearyl alcohol, polysorbate 60) and oil (edible olive oil, Ajinomoto Co., Inc.) were completely melted in hot water (50° C.). Warm water (ultrapure water) was added thereto, and the mixture was mixed. An aqueous solution of mimosine or mimosine-introduced peptide was added thereto, and the mixture was completely mixed up. The obtained mixture was stored at 4° C. until use in the animal experiment.
# The left and right sides of the trunk of ddY mice (9-week-old, male, 6 mice in each group) were shaved with clippers under anesthesia with ether. […] Any special changes were not observed. […] Therefore, it is thought that mimosine and mimosine-introduced peptide can be utilized in the cosmetic field.
row,Compound,Acute dermal toxicity (skin condition)
1,NC(Cn1ccc(=O)c(O)c1)C(=O)O (stereo not drawn) [Mimosine],neither mimosine nor a mimosine-introduced peptide has an acute dermal toxicity
